Laboratory results as given in paper PMC10989899, “MomL inhibits bacterial antibiotic resistance through the starvation stringent response pathway” (mLife, 2022).
pKd: −log10 of the molar value.

Key:
LasR = molecular target: T1, LasR (Pseudomonas aeruginosa, UniProt P25084); assay: EMSA, LasR binding to relA promoter DNA; format: biochemical; conditions: AHL required for DNA binding; the AHL added in EMSA is not named, 3-O-C12-HSL is that of LasR expression; 37 °C
T1 construct: recombinant, pET28a, E. coli BL21(DE3), Ni-NTA

[1] = tested on: RpoS (Pseudomonas aeruginosa PAO1); assay: SPR; conditions: binding buffer not stated, SPR: PBS, temperature not stated

T1 sequence (P25084 whole entry): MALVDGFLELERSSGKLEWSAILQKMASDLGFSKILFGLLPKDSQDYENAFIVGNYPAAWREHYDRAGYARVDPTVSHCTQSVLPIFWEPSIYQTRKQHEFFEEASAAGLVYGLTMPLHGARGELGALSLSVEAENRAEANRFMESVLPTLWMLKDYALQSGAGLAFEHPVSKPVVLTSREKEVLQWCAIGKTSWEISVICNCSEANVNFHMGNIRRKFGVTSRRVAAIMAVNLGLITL

Compound | EMSA, LasR binding to relA promoter DNA (LasR) | pKd [1]
CCCCCCCCCC(=O)CC(=O)N[C@H]1CCOC1=O [3-O-C12-HSL] | This binding depended on the presence of AHLs. | –
H2-T6SS promoter DNA (SPR) | – | 7.06
